Reference: ChEMBL document CHEMBL2390830 (Eur J Med Chem, 2013)
Calls of active or inactive are those of the source. No cut-off for these calls is given here.

Assays:
[1] = target: T1, 5-hydroxytryptamine receptor 2B (Homo sapiens, UniProt P41595); assay: Binding affinity to human 5-HT2B receptor by radioligand displacement assay
[2] = Clearance in CD1 mouse at 2 mg/kg, iv; format: ADME, organism-based; design: dose 2 mg/kg, route intravenous; conditions: in vivo
[3] = AUCinfinity in CD1 mouse at 10 mg/kg, po; format: ADME, organism-based; design: time infinity, dose 10 mg/kg, route oral; conditions: plasma
Mus musculus [4] = assay: Toxicity in CD1 mouse assessed as effect on neurovegetative reflexes up to 80 mg/kg, po measured for 24 hrs by Irwin test; format: organism-based; design: dose 80 mg/kg, route oral; conditions: in vivo
[5] = target: T1, 5-hydroxytryptamine receptor 2B; assay: Inhibition of human 5-HT2B receptor at 10 nM relative to control
[6] = target: T2, 5-hydroxytryptamine receptor 7 (Homo sapiens, UniProt P34969); assay: Inhibition of human 5-HT7 receptor
T2 sequence (P34969 whole entry): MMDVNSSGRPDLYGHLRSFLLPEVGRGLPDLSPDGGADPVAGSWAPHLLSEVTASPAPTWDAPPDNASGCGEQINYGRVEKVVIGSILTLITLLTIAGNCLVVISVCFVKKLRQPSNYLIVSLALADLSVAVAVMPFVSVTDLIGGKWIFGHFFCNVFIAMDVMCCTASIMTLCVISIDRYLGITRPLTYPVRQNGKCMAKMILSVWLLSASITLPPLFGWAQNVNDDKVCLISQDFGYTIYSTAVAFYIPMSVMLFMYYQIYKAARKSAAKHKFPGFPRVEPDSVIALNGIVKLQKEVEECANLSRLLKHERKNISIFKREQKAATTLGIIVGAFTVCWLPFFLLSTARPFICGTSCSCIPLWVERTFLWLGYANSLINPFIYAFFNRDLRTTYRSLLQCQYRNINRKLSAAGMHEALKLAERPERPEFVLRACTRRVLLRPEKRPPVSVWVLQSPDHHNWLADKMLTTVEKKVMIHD

D(2) dopamine receptor [7] = target: T3, D(2) dopamine receptor (Homo sapiens, UniProt P14416); conditions: HEK293, 10 nM
T3 sequence (P14416 whole entry): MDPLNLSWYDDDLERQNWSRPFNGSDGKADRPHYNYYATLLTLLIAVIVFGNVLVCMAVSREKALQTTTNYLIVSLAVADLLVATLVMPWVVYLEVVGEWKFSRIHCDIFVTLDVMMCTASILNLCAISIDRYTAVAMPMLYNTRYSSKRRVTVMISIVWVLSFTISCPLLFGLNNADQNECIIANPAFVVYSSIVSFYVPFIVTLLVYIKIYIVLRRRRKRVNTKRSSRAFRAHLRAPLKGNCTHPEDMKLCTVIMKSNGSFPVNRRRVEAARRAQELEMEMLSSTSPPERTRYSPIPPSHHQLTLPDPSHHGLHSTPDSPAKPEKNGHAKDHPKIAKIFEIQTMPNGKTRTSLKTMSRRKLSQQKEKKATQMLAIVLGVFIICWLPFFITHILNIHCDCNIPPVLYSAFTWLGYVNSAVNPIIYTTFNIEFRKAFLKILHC

[8] = Apparent volume of distribution in CD1 mouse at 2 mg/kg, iv; format: ADME, organism-based; design: dose 2 mg/kg, route intravenous; conditions: in vivo, read-out: Vz
Mus musculus [9] = assay: Toxicity in CD1 mouse assessed as effect on central reactivity up to 80 mg/kg, po measured for 24 hrs by Irwin test; format: organism-based; design: dose 80 mg/kg, route oral; conditions: in vivo
D(4) dopamine receptor = target: T4, D(4) dopamine receptor (Homo sapiens, UniProt P21917); assay: Inhibition of dopamine D4 receptor (unknown origin)
T4 sequence (P21917 whole entry): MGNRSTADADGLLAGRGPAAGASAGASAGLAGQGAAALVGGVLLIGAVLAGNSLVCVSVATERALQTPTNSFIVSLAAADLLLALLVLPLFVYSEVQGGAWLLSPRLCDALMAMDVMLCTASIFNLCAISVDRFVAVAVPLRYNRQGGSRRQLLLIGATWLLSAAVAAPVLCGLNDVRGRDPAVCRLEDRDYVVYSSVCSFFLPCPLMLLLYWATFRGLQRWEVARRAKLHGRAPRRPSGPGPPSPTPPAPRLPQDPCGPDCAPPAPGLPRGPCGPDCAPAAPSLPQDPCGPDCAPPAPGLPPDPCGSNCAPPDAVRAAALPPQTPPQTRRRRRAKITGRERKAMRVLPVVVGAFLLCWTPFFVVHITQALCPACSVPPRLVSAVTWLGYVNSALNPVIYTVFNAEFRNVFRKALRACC

[10] = Oral bioavailability in CD1 mouse at 10 mg/kg; format: ADME, organism-based; conditions: in vivo
D(3) dopamine receptor [11] = target: T5, D(3) dopamine receptor (Homo sapiens, UniProt P35462); assay: Inhibition of human dopamine D3 receptor at 10 nM relative to control
T5 sequence (P35462 whole entry): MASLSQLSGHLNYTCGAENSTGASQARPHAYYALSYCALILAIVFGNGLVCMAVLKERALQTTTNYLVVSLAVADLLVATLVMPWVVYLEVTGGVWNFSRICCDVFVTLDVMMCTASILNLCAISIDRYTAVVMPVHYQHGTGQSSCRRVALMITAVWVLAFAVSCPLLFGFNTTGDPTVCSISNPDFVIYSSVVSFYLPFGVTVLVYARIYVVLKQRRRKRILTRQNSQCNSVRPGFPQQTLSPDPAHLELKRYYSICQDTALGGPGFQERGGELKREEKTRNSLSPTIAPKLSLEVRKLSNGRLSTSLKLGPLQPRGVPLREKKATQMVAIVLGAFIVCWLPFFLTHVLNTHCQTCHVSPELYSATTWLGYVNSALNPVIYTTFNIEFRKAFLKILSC

[12] = target: T6, D(4) dopamine receptor (Homo sapiens) (UniProt P21917); assay: Inhibition of dopamine D4 receptor (unknown origin) at 100 nM relative to control
T6 sequence (whole entry): T4 sequence (P21917 whole entry)

[13] = AUC (0 to t) in CD1 mouse at 10 mg/kg, po; format: ADME, organism-based; design: dose 10 mg/kg, route oral; conditions: plasma
Mus musculus [14] = assay: Toxicity in CD1 mouse assessed as effect on central activity up to 80 mg/kg, po measured for 24 hrs by Irwin test; format: organism-based; design: dose 80 mg/kg, route oral; conditions: in vivo
D(3) dopamine receptor [15] = target: T5, D(3) dopamine receptor; assay: Inhibition of human dopamine D3 receptor
[16] = Half life in CD1 mouse at 10 mg/kg, po; format: ADME, organism-based; design: dose 10 mg/kg, route oral; conditions: in vivo
Mus musculus [17] = assay: Toxicity in CD1 mouse assessed as effect on autonomic system up to 80 mg/kg, po measured for 24 hrs by Irwin test; format: organism-based; design: dose 80 mg/kg, route oral; conditions: in vivo
[18] = target: T1, 5-hydroxytryptamine receptor 2B; assay: Inhibition of human 5-HT2B receptor at 100 nM relative to control
[19] = target: T1, 5-hydroxytryptamine receptor 2B; assay: Inhibition of human 5-HT2B receptor
[20] = target: T2, 5-hydroxytryptamine receptor 7; assay: Inhibition of human 5-HT7 receptor at 10 nM relative to control
D(2) dopamine receptor [21] = target: T3, D(2) dopamine receptor; assay: Inhibition of human recombinant dopamine D2S receptor expressed in HEK293 cells; format: cell-based
[22] = target: T7, 5-hydroxytryptamine receptor 1A (Rattus norvegicus, UniProt P19327); assay: Displacement of [3H]8-OH-DPAT from 5-HT1A receptor in Wistar rat cerebral hippocampus membrane after 10 mins; format: tissue-based; conditions: read-out: Ki(app)
T7 sequence (P19327 whole entry): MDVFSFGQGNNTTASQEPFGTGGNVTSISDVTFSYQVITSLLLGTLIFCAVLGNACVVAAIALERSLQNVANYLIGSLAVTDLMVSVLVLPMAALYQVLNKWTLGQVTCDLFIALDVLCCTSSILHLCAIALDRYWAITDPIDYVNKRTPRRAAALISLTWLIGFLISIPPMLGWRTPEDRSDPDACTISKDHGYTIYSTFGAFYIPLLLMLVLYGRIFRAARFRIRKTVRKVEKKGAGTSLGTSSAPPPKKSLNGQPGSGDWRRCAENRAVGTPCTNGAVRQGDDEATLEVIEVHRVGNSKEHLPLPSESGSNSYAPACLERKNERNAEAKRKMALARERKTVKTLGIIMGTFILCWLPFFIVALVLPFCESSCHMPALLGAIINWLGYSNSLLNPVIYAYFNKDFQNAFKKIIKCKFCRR

D(3) dopamine receptor [23] = target: T5, D(3) dopamine receptor; assay: Inhibition of human dopamine D3 receptor at 100 nM relative to control
D(2) dopamine receptor [24] = target: T3, D(2) dopamine receptor; conditions: HEK293, 100 nM
[25] = AUCinfinity in CD1 mouse at 2 mg/kg, iv; format: ADME, organism-based; design: time infinity, dose 2 mg/kg, route intravenous; conditions: plasma
[26] = AUC (0 to t) in CD1 mouse at 2 mg/kg, iv; format: ADME, organism-based; design: dose 2 mg/kg, route intravenous; conditions: plasma
[27] = Cmax in CD1 mouse at 10 mg/kg, po; format: ADME, organism-based; design: dose 10 mg/kg, route oral; conditions: in vivo
[28] = target: T8, 5-hydroxytryptamine receptor 1A (Homo sapiens) (UniProt P08908); assay: Agonist activity at human 5-HT1A receptor transfected in CHO cells assessed as inhibition of forskolin-induced cAMP accumulation at 100 nM relative to control; format: functional, cell-based
T8 sequence (whole entry): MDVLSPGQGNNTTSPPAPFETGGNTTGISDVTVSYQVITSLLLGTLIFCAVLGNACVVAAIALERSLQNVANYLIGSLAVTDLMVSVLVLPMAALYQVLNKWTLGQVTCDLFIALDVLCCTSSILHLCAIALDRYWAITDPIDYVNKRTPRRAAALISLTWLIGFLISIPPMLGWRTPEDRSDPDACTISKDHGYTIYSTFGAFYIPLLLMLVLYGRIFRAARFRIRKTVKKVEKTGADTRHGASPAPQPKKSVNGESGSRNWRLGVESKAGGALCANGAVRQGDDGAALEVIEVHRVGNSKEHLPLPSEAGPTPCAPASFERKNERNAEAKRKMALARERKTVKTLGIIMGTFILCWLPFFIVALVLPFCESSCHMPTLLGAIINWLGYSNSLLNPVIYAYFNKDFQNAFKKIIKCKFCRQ

Mus musculus [29] = assay: Toxicity in CD1 mouse assessed as effect on neuromotor tonus up to 80 mg/kg, po measured for 24 hrs by Irwin test; format: organism-based; design: dose 80 mg/kg, route oral; conditions: in vivo
[30] = target: T8, 5-hydroxytryptamine receptor 1A (Homo sapiens); assay: Antagonist activity at human 5-HT1A receptor transfected in CHO cells assessed as reversal of 8-OH-DPAT-induced cAMP reduction; format: functional, cell-based
[31] = target: T6, D(4) dopamine receptor (Homo sapiens); assay: Inhibition of dopamine D4 receptor (unknown origin) at 10 nM relative to control
[32] = Half life in CD1 mouse at 2 mg/kg, iv; format: ADME, organism-based; design: dose 2 mg/kg, route intravenous; conditions: in vivo
[33] = Tmax in CD1 mouse at 10 mg/kg, po; format: ADME, organism-based; design: dose 10 mg/kg, route oral; conditions: in vivo
[34] = target: T2, 5-hydroxytryptamine receptor 7; assay: Inhibition of human 5-HT7 receptor at 100 nM relative to control

T1 sequence (P41595 whole entry): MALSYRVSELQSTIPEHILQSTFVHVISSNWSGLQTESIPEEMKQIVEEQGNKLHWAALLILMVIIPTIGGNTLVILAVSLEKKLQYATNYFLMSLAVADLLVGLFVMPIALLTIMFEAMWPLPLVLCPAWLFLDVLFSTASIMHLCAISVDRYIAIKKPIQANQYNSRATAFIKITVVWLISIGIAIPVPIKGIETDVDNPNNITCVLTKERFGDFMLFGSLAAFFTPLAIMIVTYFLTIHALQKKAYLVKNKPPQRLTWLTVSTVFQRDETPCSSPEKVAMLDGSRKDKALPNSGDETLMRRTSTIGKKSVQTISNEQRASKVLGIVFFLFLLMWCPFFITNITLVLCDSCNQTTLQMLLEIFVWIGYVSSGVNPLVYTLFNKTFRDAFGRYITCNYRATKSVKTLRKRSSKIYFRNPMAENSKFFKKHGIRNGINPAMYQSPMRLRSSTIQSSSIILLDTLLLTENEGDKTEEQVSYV

## COc1cc(CC(C)N)c(OC)cc1I (racemic)
[1]
  IC50: 0.004 µM

## COc1ccccc1N1CCN(CCCCCN2Cc3ccc4ccccc4c3C2=O)CC1
[2]
  clearance: 159 mL/min/kg
[3]
  AUC(0-inf): 325 ng·h/mL
Mus musculus [4]
  Activity: Non-toxic
[5]
  inhibition: 28%
[6]
  IC50: 0.062 µM
D(2) dopamine receptor [7]
  inhibition: 74%
[8]
  Vd: 17.6 L/kg
Mus musculus [9]
  Activity: Non-toxic
D(4) dopamine receptor
  IC50: 0.065 µM
[10]
  bioavailability: 20%
D(3) dopamine receptor [11]
  inhibition: 39%
[12]
  inhibition: 60%
[13]
  AUC(0-t): 212 ng·h/mL
Mus musculus [14]
  Activity: Non-toxic
D(3) dopamine receptor [15]
  IC50: 0.024 µM
[16]
  half-life: 4.7 h
Mus musculus [17]
  Activity: Non-toxic
[18]
  inhibition: 70%
[19]
  IC50: 0.043 µM
[20]
  inhibition: 18%
D(2) dopamine receptor [21]
  IC50: 0.0035 µM
[22]
  Ki: 0.0016 µM
D(3) dopamine receptor [23]
  inhibition: 86%
D(2) dopamine receptor [24]
  inhibition: 90%
[25]
  AUC(0-inf): 210 ng·h/mL
[26]
  AUC(0-t): 207 ng·h/mL
[27]
  Cmax: 56 ng/mL
[28]
  inhibition: 63%
Mus musculus [29]
  Activity: Non-toxic
[30]
  Activity: inactive
[31]
  inhibition: 13%
[32]
  half-life: 1.3 h
[33]
  Tmax: 0.3 h
[34]
  inhibition: 65%

## COc1ccccc1N1CCN(CCCCCN2Cc3c(Cl)nc4ccccc4c3C2=O)CC1
[2]
  clearance: 440 mL/min/kg
[3]
  AUC(0-inf): 239 ng·h/mL
Mus musculus [4]
  Activity: Non-toxic
[5]
  inhibition: 18%
[6]
  IC50: > 0.1 µM
[8]
  Vd: 58.7 L/kg
Mus musculus [9]
  Activity: Non-toxic
D(4) dopamine receptor
  IC50: > 0.1 µM
[10]
  bioavailability: 45%
D(3) dopamine receptor [11]
  inhibition: 38%
[12]
  inhibition: 28%
[13]
  AUC(0-t): 157 ng·h/mL
Mus musculus [14]
  Activity: Non-toxic
D(3) dopamine receptor [15]
  IC50: 0.031 µM
[16]
  half-life: 4.5 h
Mus musculus [17]
  Activity: Non-toxic
[18]
  inhibition: 65%
[19]
  IC50: 0.063 µM
[20]
  inhibition: 24%
D(2) dopamine receptor [21]
  IC50: > 0.1 µM
[22]
  Ki: 0.0017 µM
D(3) dopamine receptor [23]
  inhibition: 74%
D(2) dopamine receptor [24]
  inhibition: 26%
[25]
  AUC(0-inf): 76 ng·h/mL
[26]
  AUC(0-t): 70 ng·h/mL
[27]
  Cmax: 35 ng/mL
[28]
  inhibition: 60%
Mus musculus [29]
  Activity: Non-toxic
[30]
  Activity: inactive
[31]
  inhibition: 10%
[32]
  half-life: 1.5 h
[33]
  Tmax: 1 h
[34]
  inhibition: 42%
